What was measured:
CYP2B6 = target: T1, CYP2B6 (Homo sapiens, UniProt P20813); assay: stability with recombinant CYP2B6; assay type: in vitro ADME; details: recombinant CYP2B6, intrinsic clearance, read-out: Recombinant CYP CLINT
T1 sequence (P20813 1-491): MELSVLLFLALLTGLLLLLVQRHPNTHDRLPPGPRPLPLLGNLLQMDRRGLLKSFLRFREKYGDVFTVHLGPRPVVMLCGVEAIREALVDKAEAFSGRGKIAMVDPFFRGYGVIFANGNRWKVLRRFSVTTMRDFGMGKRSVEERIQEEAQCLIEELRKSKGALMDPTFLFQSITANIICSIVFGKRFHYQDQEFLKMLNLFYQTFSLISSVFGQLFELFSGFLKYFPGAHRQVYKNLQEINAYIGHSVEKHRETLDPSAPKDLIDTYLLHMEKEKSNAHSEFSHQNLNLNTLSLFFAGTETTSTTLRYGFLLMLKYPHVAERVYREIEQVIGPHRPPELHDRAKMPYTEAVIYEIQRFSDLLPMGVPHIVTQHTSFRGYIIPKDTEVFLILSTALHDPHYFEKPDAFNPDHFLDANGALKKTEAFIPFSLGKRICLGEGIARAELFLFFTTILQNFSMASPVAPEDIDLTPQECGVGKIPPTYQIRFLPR
Description: (§1) Depicted in table 2 is cytochrome P450 phenotyping and inhibition by ELP-004. The stability of ELP-004 was tested in the presence of recombinant enzymes CYP1A2, CYP2B6, CYP2C8, CYP2C9, CYP2C19, CYP2D6, and CYP3A4. ELP-004 (1 μM) was incubated with recombinant enzymes and NADPH. The amount of ELP-004 remaining at each timepoint was analyzed by LC-MS/MS. Incubations in control recombinant enzymes were also performed to assess non-enzymatic mediated stability. The intrinsic clearance of ELP-004 was determined. […] A decrease in the formation of the metabolite compared to vehicle control is used to calculate an IC50 value. Metabolite peak area ratio response as a percentage of vehicle control is plotted against the test compound concentration.

Murine BMSMCs [1] = assay: cytosolic Ca2+ levels and NFAT nuclear translocation during osteoclastogenesis; assay type: cell-based; details: 100 nM
osteoclasts = assay: development of osteoclasts (osteoclastogenesis); assay type: cell-based
[2] = ability to cross the blood brain barrier
Text: ELP-004 has been evaluated for its ability to cross the blood brain barrier. […] Other medications, such as but not limited to bupropion, are known to cause problems due to dopamine transporter binding.

CYP2D6 = CYP2D6 (Homo sapiens, UniProt P10635); assay: stability with recombinant CYP2D6; assay type: in vitro ADME
Chain of CYP2D6 (P10635 whole entry): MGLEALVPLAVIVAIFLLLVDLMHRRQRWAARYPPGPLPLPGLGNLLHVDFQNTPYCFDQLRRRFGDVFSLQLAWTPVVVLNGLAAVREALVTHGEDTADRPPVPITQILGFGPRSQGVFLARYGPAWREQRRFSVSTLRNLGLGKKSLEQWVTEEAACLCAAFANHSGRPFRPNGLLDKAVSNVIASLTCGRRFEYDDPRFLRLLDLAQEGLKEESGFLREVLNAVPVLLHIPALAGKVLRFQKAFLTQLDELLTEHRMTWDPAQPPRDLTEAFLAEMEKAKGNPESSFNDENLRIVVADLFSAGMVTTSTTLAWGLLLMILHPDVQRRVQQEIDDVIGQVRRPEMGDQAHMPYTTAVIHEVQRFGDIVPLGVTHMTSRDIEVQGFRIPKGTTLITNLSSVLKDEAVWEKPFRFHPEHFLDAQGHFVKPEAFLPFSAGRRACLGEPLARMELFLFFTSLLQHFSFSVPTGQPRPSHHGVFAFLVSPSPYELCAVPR
Description: as §1

[3] = pharmacokinetics in mice, i.v., p.o., s.c.; assay type: in vivo, female C57B16 mice
Description: ELP-004 was reconstituted in 20% hydroxypropyl-beta-cyclodextrin (HPbCD) and administered to female C57B16 mice (3/timepoint/route of administration) in the fed state. Following i.v. (2 mg/kg) […] from whole blood at 5, 15, and 30 min and at 1, 2, 4, 7, and 24 h. ELP-004 concentration was measured by LC-MS/MS. The data was fit to a two-compartment model and slopes for the a and B elimination were determined.
Depicted in table 1 is pharmacokinetic data of ELP-004 administered via i.v, p.o., and s.c. ELP-004 was reconstituted in 20% hydroxypropyl-beta-cyclodextrin (HPbCD) and administered to female C57B16 mice (3/timepoint/route of administration) in the fed state. Following i.v. (2 mg/kg), s.c. (2 mg/kg), or p.o. (10 mg/kg) administration, plasma was isolated from whole blood at 5, 15, and 30 min and at 1, 2, 4, 7, and 24 h. Plasma from p.o. was not isolated at 5 min. ELP-004 concentration was measured by LC-MS/MS (see below). The limit of quantification was 10 ng/ml and samples below that were not used in the analyses. PK parameters were calculated using Phoenix WinNonlin (Certara, NJ, USA).

[4] = tested on: CYP isoforms CYP1A2, CYP2B6, CYP2C8, CYP2C9, CYP2C19, CYP2D6, and CYP3A4; assay: reversible CYP inhibition in human liver microsomes, summary over all isoforms; assay type: in vitro ADME; details: any CYP, concentration range 0.02-25 μM
Description: as §1

CYP3A4 = CYP3A4 (Homo sapiens, UniProt P08684); assay: stability with recombinant CYP3A4; assay type: in vitro ADME; details: recombinant CYP3A4, intrinsic clearance, read-out: Recombinant CYP CLINT
Chain of CYP3A4 (P08684 whole entry): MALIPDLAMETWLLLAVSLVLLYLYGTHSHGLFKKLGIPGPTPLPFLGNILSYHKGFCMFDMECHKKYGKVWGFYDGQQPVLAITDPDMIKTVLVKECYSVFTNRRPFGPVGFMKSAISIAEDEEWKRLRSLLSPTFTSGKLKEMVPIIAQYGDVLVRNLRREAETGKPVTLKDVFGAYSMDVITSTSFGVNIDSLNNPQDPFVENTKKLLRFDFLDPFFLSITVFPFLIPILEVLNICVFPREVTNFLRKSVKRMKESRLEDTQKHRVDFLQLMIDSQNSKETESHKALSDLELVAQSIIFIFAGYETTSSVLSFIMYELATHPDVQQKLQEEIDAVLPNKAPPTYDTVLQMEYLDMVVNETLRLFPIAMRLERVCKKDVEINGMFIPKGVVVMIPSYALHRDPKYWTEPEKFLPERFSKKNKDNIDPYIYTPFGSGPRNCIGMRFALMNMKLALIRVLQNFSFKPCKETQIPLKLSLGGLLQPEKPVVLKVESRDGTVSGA
Description: as §1

[5] = tested on: human myeloma cells (U266 cells); assay: bone loss in the animal model of multiple myeloma; assay type: in vivo; details: mice engrafted with human U266 myeloma cells, 60 mg/kg ELP-004 at 72h intervals (summary statement)
Description: Shown are cross-sections of distal femur micro-computer tomographic images from mice treated with 60 mg/kg ELP-004 or vehicle control at 72h intervals after the engraftment of human 2×10^6 myeloma cells (U266 cells). Confirmation of engraftment was verified by measuring serum human IgE levels.

Murine BMSMCs [6] = assay: TNFα-induced osteoclast fusion (TRAP, multinucleation, marker mRNA); assay type: cell-based; details: RANKL/TNFα
Description: (A_C) Murine BMSMCs were grown for up to 21 days in media supplemented with 50 ng/ml m-CSF, […] RANKL and 2 ng/ml TNFα. Each experiment was repeated a minimum of three times. Cells were fixed and stained for Tartrate Resistant Acid Phosphatase (TRAP)_activity at days 1, 7, 14 and 21. In schematic A, the number of TRAP positive osteoclast-like cells (out of 100 cells) were counted for each time point; TRAP intensity was also calculated. In schematic B, at each time point the number of nuclei for each cell was counted and the average number of nuclei per cell for 100 cells is shown. […] The expression patterns of osteoclast markers was unaffected by ELP-004, indicating selective inhibition of specific features of osteoclastogenesis.

water solubility = assay type: physicochemical
Text: Those persons of ordinary skill in the art will understand that ELP-004 may be solubilized in ethanol and then diluted in sterile saline. These methods include wherein the route of administration may be, for example but not limited to, the intravenous, intramuscular, or subcutaneous routes, or via the oral route of administration.

CYP2C19 = CYP2C19 (Homo sapiens, UniProt P33261); assay: stability with recombinant CYP2C19; assay type: in vitro ADME; details: recombinant CYP2C19, intrinsic clearance, read-out: Recombinant CYP CLINT
Chain of CYP2C19 (P33261 whole entry): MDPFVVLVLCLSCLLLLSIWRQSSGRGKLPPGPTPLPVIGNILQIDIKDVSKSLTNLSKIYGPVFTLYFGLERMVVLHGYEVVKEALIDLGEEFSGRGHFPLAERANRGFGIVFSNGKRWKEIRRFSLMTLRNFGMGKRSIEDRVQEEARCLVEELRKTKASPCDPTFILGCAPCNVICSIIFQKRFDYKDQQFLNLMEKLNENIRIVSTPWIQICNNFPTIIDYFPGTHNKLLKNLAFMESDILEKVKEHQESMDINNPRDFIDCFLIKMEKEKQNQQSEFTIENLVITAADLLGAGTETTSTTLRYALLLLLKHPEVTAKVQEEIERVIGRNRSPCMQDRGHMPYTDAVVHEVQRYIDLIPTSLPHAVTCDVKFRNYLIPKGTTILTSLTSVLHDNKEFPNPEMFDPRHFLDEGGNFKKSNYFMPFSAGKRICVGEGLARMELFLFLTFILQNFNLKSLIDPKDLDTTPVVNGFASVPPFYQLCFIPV
Description: as §1

SMILES: CCC(=O)N(C)c1ccc(Cl)c(Cl)c1 [ELP-004, N-(3,4-dichlorophenyl)-N-methylpropanamide]
- microsomal CLint at 1 μM (CYP2B6): 0.815 µL/min/mg
- NFAT nuclear translocation (Murine BMSMCs [1]; LTB4-induced changes): significantly inhibited
- cytosolic Ca2+ levels (Murine BMSMCs [1]; LTB4-induced changes): significantly inhibited
- NFAT nuclear translocation (Murine BMSMCs [1]; RANKL-induced osteoclastogenesis): had no effect
- NFAT nuclear translocation (Murine BMSMCs [1]; TNFα-induced changes): significantly inhibited
- cytosolic Ca2+ levels (Murine BMSMCs [1]; TNFα-induced changes): significantly inhibited
- development of osteoclasts (osteoclasts; general statement): inhibits the development of osteoclasts in a dose dependent manner
- osteoclast maturation (osteoclasts; summary statement): suppressed
- crossing of the blood brain barrier [2]: does not cross the blood brain barrier
- microsomal CLint at 1 μM (CYP2D6; human, recombinant CYP2D6, intrinsic clearance, read-out: Recombinant CYP CLINT): < 0.154 µL/min/mg
- metabolism by recombinant enzyme (CYP2D6; recombinant CYP2D6): not metabolized
- ELP-004 t1/2 (CYP2D6; recombinant CYP2D6, 1 μM, NADPH): >3 h
- time until essentially eliminated ([3]; administered orally): ≤ 4 h
- C0 ([3]; female, C57B16, mouse, plasma, iv, i.v. 2 mg/kg): 1220 ng/mL
- reversible inhibition of CYP isoforms [4]: did not inhibit
- microsomal CLint at 1 μM (CYP3A4): 0.193 µL/min/mg
- development of bone lesions [5]: strongly suppressed
- TRAP activity (Murine BMSMCs [6]): completed abrogated
- expression patterns of osteoclast markers (Murine BMSMCs [6]): unaffected
- multinucleation (Murine BMSMCs [6]): severely attenuated
- water solubility (water solubility): not water soluble
- microsomal CLint at 1 μM (CYP2C19): 0.279 µL/min/mg

Source: patent US20240277631A1, “SMALL MOLECULE DRUG (ELP-004) TO PREVENT BONE LESIONS CAUSED BY MULTIPLE MYELOMA” (West Virginia University Board of Governors on behalf of …, priority 2023, published 2024)
